These results are taken from paper PMC8635421, “Illumination of serotonin transporter mechanism and role of the allosteric site” (Science Advances, 2021).

Assay [1] concerns the target T1, SERT (Homo sapiens, UniProt P31645).
T1 construct: N- and C-terminally truncated but otherwise wild-type (ΔN72, ΔC13); GFP (C); Strep tag (purification tag); made in house; host or cells: HEK-293S GnTI- cells, baculovirus-mediated transduction
The experiment in a line: biochemical. The assay is classed as binding. The following applies: competition with [3H]paroxetine, SERT in nanodiscs, 100 mM NaCl, 20 nM [3H]paroxetine, n = 3 technical replicates. Here is the method:
(§1) All the competition-binding experiments were performed using scintillation proximity assays (SPAs) ([58]) with Cu-YSi beads (1 mg ml^−1) in SPA buffer containing 20 mM tris-HCl (pH 8), 100 mM NaCl, or 100 mM KCl. […] For the [^3H]paroxetine experiments, 1 nM SERT was used along with 0.3 μM to 10 mM of the cold competitors and 20 nM [^3H]paroxetine. […] Experiments were measured in triplicate. The error bars for each data point represent the SEM Ki values and were determined with the Cheng-Prusoff equation ([59]) in GraphPad Prism.

The next assay concerns the target T2, SERT allosteric site (Homo sapiens, UniProt P31645, I291A/T439S).
T2 construct: GFP (C); Strep tag (purification tag); made in house; host or cells: HEK-293S GnTI- cells, baculovirus-mediated transduction
Description: [3H]VLZ competition binding (SPA) in the presence of imipramine, allosteric site. The following applies: 800 nM [3H]VLZ and 800 nM imipramine, NaCl; read-out: Ki, competition with [3H]VLZ (affinity for the allosteric site). The method, then:
as §1

The target in assay [2] is T1, SERT. Description: Uptake of 3H-labeled N-indole methyl derivative in HEK-293S GnTI- cells transduced with ΔN72/C13 SERT. Format: cell-based. The following applies: 3H-labeled compound, fig. S3H. Here is the method:
To measure the uptake of the N-indole methyl derivative, 1 × 10^5 HEK-293S GnTI^− cells were transduced with viruses for ΔN72/C13 SERT. The cells were plated into 96-well plates coated with poly-D-lysine. After 24 hours, cells were washed with uptake buffer [25 mM Hepes-tris (pH 7), 130 mM NaCl, 5.4 mM KCl, 1.2 mM CaCl2, 1.2 mM MgSO4, 1 mM ascorbic acid, and 5 mM glucose]. The custom-synthesized [^3H]3-(2-aminoethyl)-1-methyl-1H-indol-5-ol hydrochloride isotope was diluted 1:1000 with unlabeled ligand, and a final concentration 0.78 to 100 μM was added to the cells. Uptake was stopped at 5 min by rapidly washing cells three times with 100 μl of uptake buffer, solubilizing with 20 μl of 1% Triton-X100, followed by addition of 200 μl of scintillation fluid to each well. A final concentration of 100 μM S-citalopram was added to the cells to estimate nonspecific counts. The amount of labeled 3-(2-aminoethyl)-1-methyl-1H-indol-5-ol hydrochloride was measured by counting in a standard 96-well plate using a MicroBeta scintillation counter.

T1 sequence (P31645 73-617 limits assumed): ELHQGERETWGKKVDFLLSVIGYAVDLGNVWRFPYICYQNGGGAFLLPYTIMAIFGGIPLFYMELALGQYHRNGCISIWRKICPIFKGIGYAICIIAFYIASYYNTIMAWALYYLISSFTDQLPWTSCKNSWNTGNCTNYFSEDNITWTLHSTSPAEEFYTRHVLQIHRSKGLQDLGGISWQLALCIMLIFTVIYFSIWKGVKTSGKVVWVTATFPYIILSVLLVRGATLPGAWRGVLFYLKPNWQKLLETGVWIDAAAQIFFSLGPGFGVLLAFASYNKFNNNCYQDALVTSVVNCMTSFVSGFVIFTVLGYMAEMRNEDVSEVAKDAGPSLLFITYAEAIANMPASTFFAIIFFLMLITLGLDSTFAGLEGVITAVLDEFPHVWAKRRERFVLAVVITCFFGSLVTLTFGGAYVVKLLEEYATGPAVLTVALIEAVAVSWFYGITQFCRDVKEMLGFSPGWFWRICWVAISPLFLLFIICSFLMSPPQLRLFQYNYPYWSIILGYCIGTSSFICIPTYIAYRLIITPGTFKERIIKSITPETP
T2 sequence (P31645 whole entry I291A/T439S): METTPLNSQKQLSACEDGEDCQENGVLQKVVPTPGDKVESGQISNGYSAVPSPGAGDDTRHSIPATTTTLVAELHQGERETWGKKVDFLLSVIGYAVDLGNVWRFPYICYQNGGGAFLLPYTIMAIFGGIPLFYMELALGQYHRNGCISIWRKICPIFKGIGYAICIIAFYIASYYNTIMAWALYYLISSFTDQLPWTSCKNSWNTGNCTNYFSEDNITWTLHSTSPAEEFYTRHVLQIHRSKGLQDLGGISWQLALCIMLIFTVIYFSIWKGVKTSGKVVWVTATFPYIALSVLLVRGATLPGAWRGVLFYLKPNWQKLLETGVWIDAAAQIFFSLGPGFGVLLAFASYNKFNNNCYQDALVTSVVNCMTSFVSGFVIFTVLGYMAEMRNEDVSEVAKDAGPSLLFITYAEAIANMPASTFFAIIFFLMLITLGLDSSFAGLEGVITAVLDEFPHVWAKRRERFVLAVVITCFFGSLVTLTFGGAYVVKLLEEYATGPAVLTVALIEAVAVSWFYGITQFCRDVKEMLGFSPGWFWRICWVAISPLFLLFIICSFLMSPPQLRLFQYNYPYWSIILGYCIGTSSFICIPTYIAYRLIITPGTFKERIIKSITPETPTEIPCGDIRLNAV

For orientation: Ki means the dissociation constant of the complex between target and ligand, obtained from inhibition or displacement. For the molecule `CNCCc1c[nH]c2ccc(O)cc12` [N-ω-methyl-5-hydroxytryptamine], at SERT [1], the Ki stood at 2.8 ± 0.9 µM.
On the same count and under the same terms, the value for `CNCCc1c[nH]c2ccc(OC)cc12` [5-methoxy-N-methyltryptamine] was 3.9 ± 0.9 µM.
With `Cl.Cn1cc(CCN)c2cc(O)ccc21` [3-(2-aminoethyl)-1-methyl-1H-indol-5-ol hydrochloride], the Ki is 5.4 ± 1 µM at SERT [1] and 24.9 ± 5.4 µM on SERT allosteric site. Besides, on SERT [2], the “substrate for SERT (uptake)” value is “robust substrate”.
